# Measurements: US20160151403A1, “SMALL MOLECULE MODULATORS OF P53 FAMILY SIGNALING” (The Trustees of the University of Pennsylvania, priority 2006, published 2016)
# How the values were obtained:
# [1] = test system: DR5 and p21 in HCT116/p53(+/+) cells; test: Western blot of p53 target genes DR5 and p21 in HCT116/p53(+/+) cells; format: cell-based, human; details: parental HCT116 (p53+/+) cells, FIG. 2A
# Experimental: FIGS. 2A-2B show protein levels of p53 target genes p21 and DR5 were induced by selected compounds in HCT/p53(+/+) cells (A) or HCT/p53(−/−) cells (B). In A, doses of compounds (μM) are listed above each lane. Cells treated with compounds were harvested and lysed for SDS-PAGE and immunoblotted with p21 or DR5 antibodies. Ran was used as a protein loading control. Doses of compounds in B were as follows: 2 μM for #15, 12 μM for #1 and #23, 20 μM for #20 and #32, 100 μM for #33, 200 μM for #5, #8, #12, #16, #17, and #22, and 400 μM for #3. The dose for adriamycin was 0.2 μg/ml. Cells were incubated for 16 hours at 37° C. with the various drugs prior to cell harvest;
# (§1) Cells were collected and protein concentration was quantified by the Bio-Rad protein assay prior to SDS-PAGE. Proteins were transferred to a PVDF membrane (Immobilon-P, Millipore Corporation, Bedford, Mass.) by a semi-dry transfer apparatus (Bio-Rad Laboratories, Hercules, Calif.). The membranes with transferred proteins were blotted with 10% W/V non-fat dry milk and then incubated with the primary antibody and subsequently secondary antibodies, which were labelled by horseradish peroxidase, or infrared dyes (IR). Signals were visualized by either ECL (Amersham Pharmacia Biotech, England, UK) and exposed to an X-ray film, or scanned by the Odyssey Infared Imaging System (LI-COR Biosciences, Lincoln, Nebr.). Anti-p53, DO-1, was from Santa Cruz biotechnology, Inc. (Santa Cruz, Calif.), anti-p73 (AB-1) and anti-p21 (AB-1) were obtained from Calbiochem (San Diego, Calif.). Anti-ser20 of p53 Cell were obtained from Signaling Technology (Danvers, Mass.) and anti-DR5 antibody was obtained from Cayman Chemical (Ann Arbor, Mich.).
# The chemical library screening was directed at restoring “p53 responses” in p53-deficient cells. The small molecules identified by the cell-based screening procedure appeared to be able to restore p53 responses in p53-deficient colon tumors and to eliminate viable cells. Their function was further tested on wild-type p53-expressing and p53-knockout HCT116 colon adenocarcinoma cell lines. A number of candidate modulators of signaling by the p53 family appeared to induce expression of p53 target genes such as p21 or DR5(13) either with or without stabilizing p53 protein in HCT116 cells (FIG. 2A).
# [2] = test system: HCT116/p53(−/−)/PG13 cells; test: p53 transcriptional activity, PG13 reporter, HCT116/p53(-/-)/PG13 cells; format: cell-based, human; details: p53-null HCT116, 16 h, bioluminescence
# Experimental: Cells were treated by the indicated compounds at progressive 1:2 serial dilutions for 16 h, and the luciferase activities were detected by bioluminescence imaging. Fold induction was calculated by comparing to the nontreated cells;
# HCT116/p53^−/− cells = test: Flow cytometry cell cycle profile, HCT116/p53(-/-); format: cell-based, human; details: for sub-G1 peak (apoptosis): HCT116/p53^−/−, #17 200 μM, #23 10 μM
# Experimental: (§2) FIGS. 3A-3F show: Structures (A) of isolated compounds and summary of their effects on the p53 family and transcriptional targets (B). Cell cycle profiles of HCT/p53(+/+) and HCT/p53(−/−) in response to treatment by selected compounds (C-E). The dose of #17 was 200 μM and for #23 it was 10 μM. F, p73 protein levels were elevated in HCT116/p53(−/−) cells in response to treatment by selected compounds at various concentrations as indicated;
# Adherent cells in a 6-well plate were trypsinized and collected in 15 ml centrifuge tubes to which were added the originally floating cells. The collected cells were ethanol-fixed and stained with propidium iodide (Sigma, St. Louis, Mo.). The DNA content of the stained cells was then measured using an Epics Elite flow cytometer (Beckman-Coulter, Fullerton, Calif.).
# The ability of selected compounds from the chemical library screen to induce apoptosis of human colon tumor cells and the dependence of their effects on endogenous p53 status was further evaluated.
# [3] = test system: HCT116/p53(−/−) xenografts; test: In vivo anti-tumor assay, HCT116/p53(-/-) xenografts in Balb/c nude mice; details: intra-peritoneal, #1 100 mg/kg, #14 50 mg/kg, #23 10 mg/kg; 7 days after treatment
# Experimental: Balb/c nude mice were inoculated subcutaneously with 2 million HCT116/p53(−/−) cells in Matrigel on each flank. 6 mice were used in each group, in each of the two experiments. When the tumor mass reached about 3-5 mm, mice were treated with the compounds alone or following a single dose of TRAIL at 100 μg/mouse in experiment 1. At 7 days after treatment, mice were sacrificed and the tumor masses were weighted. The doses used were 100 mg/kg for #1, 50 mg/kg for #14, and 10 mg/kg for #23;
# Balb/c nude mice (Charles River Laboratories, Wilmington, Mass.) were inoculated subcutaneously with 2 million HCT116/p53(−/−) cells in an equal volume of Matrigel. When tumor masses reached about 3-5 mm in diameter, mice were treated with the compounds alone by intraperitoneal injection or following a single intravenous dose of TRAIL at 100 μg/mouse. At 7 days after treatment, mice were sacrificed and the tumor masses were weighed. DLD1/PG13 cells were inoculated subcutaneously with 5 million cells. At 24 hours later mice were treated with selected compounds, and subsequently bioluminescence imaging was carried out after 16 hours as previously described [Wang, W. & El-Deiry, W. S. (2003) Cancer Biol Ther 2, 196-202].
# Compounds #1, #14, #17, and #23 were tested in colon-tumor xenograft-bearing mice in order to evaluate their toxicities and potential anti-tumor effects (FIG. 4). […] The initial doses were chosen below maximal tolerated doses based on the NCI DTP toxicology databases for chemical compound testing in vivo so that mice would survive drug administration and allow subsequent evaluation of anti-tumor effects. p53-null HCT116 xenografts were first tested to document anti-tumor effects in p53-deficient tumors and an experiment to simulate therapy of established tumors was designed. A total of 2×10^6 p53-null HCT116 cells were implanted on opposite flanks subcutaneously in each of 6 nude mice in each group. When tumor masses grew to about 3-5 mm in diameter, drugs were administered intra-peritoneally (#1: 100 mg/kg; #14: 50 mg/kg; #23: 10 mg/kg), and on the next day additional groups received intravenous TRAIL (15) (100 μg/mice via the tail vein). Tumor weights were determined at 7 days later. […] Nonetheless in the future it may be possible to modify the structure of #17 or identify doses where synergistic interactions with TRAIL may be observed.
# [4] = test system: p73 in HCT116/p53(−/−) cells; test: Western blot of p73 protein in HCT116/p53(-/-) cells; format: cell-based, human; details: FIG. 3F
# Experimental: as §2, §1
# The questioned whether the p53 family member p73 is involved in the p53-responsive transcriptional activity induced by the compounds identified was then tested. p63, the other p53 family member, was not tested, because the TA form of p63 is rarely expressed in malignant and normal tissues except for germ cells of the ovary and testis.
Compound,expression of p53 targets DR5 and p21 proteins [1],p53 transcriptional activity (reporter assay response) [2],sub-G1 peak (apoptosis) (HCT116/p53^−/− cells),anti-tumor effect (tumor weights) [3],p73 protein expression [4],"G1 arrest on apoptosis induction (HCT116/p53^−/− cells; p53-null HCT116 cells, compared with wild-type p53-expressing HCT116)"
CO[C@H]1[C@@H](O)[C@@H](C)O[C@H](O[C@H]2[C@H](Oc3cccc4c(O)c5c(=O)oc6ccc(C)c7c(=O)oc(c34)c5c67)O[C@H](C)[C@H](O)[C@@H]2O)[C@@H]1O [#1],increased expression of DR5 and p21 proteins,stronger responses in the reporter assays,induced a sub-G1 peak characteristic of apoptosis,anti-tumor effects were observed,,
COc1cccc2c1C(=O)c1c(O)c3c(c(O)c1C2=O)CC(O)(/C(C)=N/O)CC3OC1CC(N)C(O)C(C)O1 (stereo not drawn) [#14],increased expression of DR5 and p21 proteins,stronger responses in the reporter assays,induced a sub-G1 peak characteristic of apoptosis,anti-tumor effects were observed,strong inducers of p73,
COc1cccc2c1C(=N)c1c(O)c3c(c(O)c1C2=O)C[C@@](O)(C(C)=O)C[C@@H]3O[C@H]1C[C@H](N)[C@H](O)[C@H](C)O1 [#23],increased expression of DR5 and p21 proteins,stronger responses in the reporter assays,induced a sub-G1 peak characteristic of apoptosis,anti-tumor effects were observed,strong inducers of p73,greatly reduced G1 arrest
